# Calls of active or inactive are those of the source. No cut-off for these calls is given here.
# Columns and labels:
# [1] = system: GM16216; assay: Cytoprotection against DEM-induced toxicity in human GM16216 cells assessed as increase in cell viability at 0.5 to 2.5 uM pretreated for 16 hrs followed by DEM addition and measured after 5 hrs by live/dead staining based flow cytometry; format: functional
# [2] = system: GM15850; assay: Cytoprotection against DEM-induced toxicity in human GM15850 cells assessed as increase in cell viability at 0.5 to 2.5 uM pretreated for 16 hrs followed by DEM addition and measured after 5 hrs by live/dead staining based flow cytometry; format: functional
# [3] = system: GM15850; assay: Inhibition of ATP production in human GM15850 cells after 24 hrs by Vialight reagent based luminescence assay; format: functional, cell-based
# [4] = system: GM16216; assay: Inhibition of ATP production in human GM16216 cells after 24 hrs by Vialight reagent based luminescence assay; format: functional, cell-based
# [5] = system: GM15850; assay: Effect on ATP production in human GM15850 cells at 0.1 uM after 24 hrs by Vialight reagent based luminescence assay; format: functional, cell-based
# [6] = system: GM16216; assay: Effect on ATP production in human GM16216 cells at 0.1 uM after 24 hrs by Vialight reagent based luminescence assay; format: functional, cell-based
# [7] = system: GM15850; assay: Increase in frataxin expression in human GM15850 cells at 50 to 250 nM after 24 to 48 hrs by ELISA; format: functional, cell-based
# [8] = system: GM16216; assay: Increase in frataxin expression in human GM16216 cells at 50 to 250 nM after 24 to 48 hrs by ELISA; format: functional, cell-based
# [9] = system: GM15850; assay: Induction of mitochondrial biogenesis in human GM15850 cells assessed as increase in ratio of COX1 to SDH-A protein levels at 50 to 250 nM after 24 to 48 hrs by ELISA; format: functional, cell-based
# [10] = system: GM16216; assay: Induction of mitochondrial biogenesis in human GM16216 cells assessed as increase in ratio of COX1 to SDH-A protein levels at 50 to 250 nM after 24 to 48 hrs by ELISA; format: functional, cell-based
# [11] = system: GM15850; assay: Effect on frataxin expression in human GM15850 cells at 50 nM after 24 hrs by ELISA relative to control; format: functional
# [12] = system: GM16216; assay: Effect on frataxin expression in human GM16216 cells at 50 nM after 24 hrs by ELISA relative to control; format: functional
# [13] = system: GM15850; assay: Effect on frataxin expression in human GM15850 cells at 250 nM after 24 hrs by ELISA relative to control; format: functional
# [14] = system: GM16216; assay: Effect on frataxin expression in human GM16216 cells at 250 nM after 24 hrs by ELISA relative to control; format: functional
# [15] = system: GM15850; assay: Effect on frataxin expression in human GM15850 cells at 50 nM after 48 hrs by ELISA relative to control; format: functional
# [16] = system: GM16216; assay: Effect on frataxin expression in human GM16216 cells at 50 nM after 48 hrs by ELISA relative to control; format: functional
# [17] = system: GM15850; assay: Effect on frataxin expression in human GM15850 cells at 250 nM after 48 hrs by ELISA relative to control; format: functional
# [18] = system: GM16216; assay: Effect on frataxin expression in human GM16216 cells at 250 nM after 48 hrs by ELISA relative to control; format: functional
# [19] = system: GM15850; assay: Induction of mitochondrial biogenesis in human GM15850 cells assessed as ratio of COX1 to SDH-A protein levels at 50 after 24 hrs by ELISA relative to control; format: functional
# [20] = system: GM16216; assay: Induction of mitochondrial biogenesis in human GM16216 cells assessed as ratio of COX1 to SDH-A protein levels at 50 after 24 hrs by ELISA relative to control; format: functional
# [21] = system: GM15850; assay: Induction of mitochondrial biogenesis in human GM15850 cells assessed as ratio of COX1 to SDH-A protein levels at 250 after 24 hrs by ELISA relative to control; format: functional
# [22] = system: GM16216; assay: Induction of mitochondrial biogenesis in human GM16216 cells assessed as ratio of COX1 to SDH-A protein levels at 250 after 24 hrs by ELISA relative to control; format: functional
# [23] = system: GM15850; assay: Induction of mitochondrial biogenesis in human GM15850 cells assessed as ratio of COX1 to SDH-A protein levels at 50 after 48 hrs by ELISA relative to control; format: functional
# [24] = system: GM16216; assay: Induction of mitochondrial biogenesis in human GM16216 cells assessed as ratio of COX1 to SDH-A protein levels at 50 after 48 hrs by ELISA relative to control; format: functional
# [25] = system: GM15850; assay: Induction of mitochondrial biogenesis in human GM15850 cells assessed as ratio of COX1 to SDH-A protein levels at 250 after 48 hrs by ELISA relative to control; format: functional
# [26] = system: GM16216; assay: Induction of mitochondrial biogenesis in human GM16216 cells assessed as ratio of COX1 to SDH-A protein levels at 250 after 48 hrs by ELISA relative to control; format: functional
# [27] = system: GM15850; assay: Restoration of total aconitase activity in human GM15850 cells at 50 nM after 5 days by colorimetric method relative to control; format: functional
# [28] = system: GM16216; assay: Restoration of total aconitase activity in human GM16216 cells at 50 nM after 5 days by colorimetric method relative to control; format: functional
# [29] = system: GM15850; assay: Restoration of total aconitase activity in human GM15850 cells at 250 nM after 5 days by colorimetric method relative to control; format: functional
# [30] = system: GM16216; assay: Restoration of total aconitase activity in human GM16216 cells at 250 nM after 5 days by colorimetric method relative to control; format: functional
# [31] = system: GM16216; assay: Effect on mitochondrial membrane potential in human GM16216 cells assessed as loss of mitochondrial membrane potential at 0.25 uM after 16 hrs by JC1 staining based flow cytometry (reference value: 13%); format: functional
# [32] = system: GM16216; assay: Effect on mitochondrial membrane potential in human GM16216 cells assessed as intact mitochondrial membrane at 0.25 uM after 16 hrs by JC1 staining based flow cytometry (reference value: 87%); format: functional
# [33] = system: GM15850; assay: Effect on mitochondrial membrane potential in human GM15850 cells assessed as loss of mitochondrial membrane potential at 0.25 uM after 16 hrs by JC1 staining based flow cytometry (reference value: 13%); format: functional
# [34] = system: GM15850; assay: Effect on mitochondrial membrane potential in human GM15850 cells assessed as intact mitochondrial membrane at 0.25 uM after 16 hrs by JC1 staining based flow cytometry (reference value: 87%); format: functional
# [35] = system: GM15850; assay: Cytotoxicity against human GM15850 cells at 0.25 to 2.5 uM after 24 to 48 hrs by live/dead staining-based flow cytometry; format: cell-based; conditions: gm15850, 2.5 µM
# [36] = system: GM16216; assay: Cytotoxicity against human GM16216 cells at 0.25 to 2.5 uM after 24 to 48 hrs by live/dead staining-based flow cytometry; format: cell-based; conditions: gm16216, 2.5 µM
# [37] = system: GM15850; assay: Increase in ATP production in human GM15850 cells at 0.1 to 0.5 uM after 24 hrs by Vialight reagent based luminescence assay; format: functional, cell-based
# [38] = system: GM16216; assay: Increase in ATP production in human GM16216 cells at 0.1 to 0.5 uM after 24 hrs by Vialight reagent based luminescence assay; format: functional, cell-based
# [39] = system: GM15850; assay: Inhibition of ATP production in human GM15850 cells at 2.5 uM after 24 hrs by Vialight reagent based luminescence assay; format: functional, cell-based
# [40] = system: GM16216; assay: Inhibition of ATP production in human GM16216 cells at 2.5 uM after 24 hrs by Vialight reagent based luminescence assay; format: functional, cell-based
# [41] = system: GM15850; assay: Increase in frataxin expression in human GM15850 cells at 50 nM after 24 to 48 hrs by ELISA; format: functional, cell-based
# [42] = system: GM16216; assay: Increase in frataxin expression in human GM16216 cells at 50 nM after 24 to 48 hrs by ELISA; format: functional, cell-based
# [43] = system: GM15850; assay: Increase in frataxin expression in human GM15850 cells at 250 nM after 24 to 48 hrs by ELISA; format: functional, cell-based
# [44] = system: GM16216; assay: Increase in frataxin expression in human GM16216 cells at 250 nM after 24 to 48 hrs by ELISA; format: functional, cell-based
# [45] = system: GM15850; assay: Cytotoxicity against human GM15850 cells at 2.5 uM after 24 to 48 hrs by live/dead staining-based flow cytometry; format: cell-based; conditions: gm15850, 2.5 µM
# [46] = system: GM16216; assay: Cytotoxicity against human GM16216 cells at 2.5 uM after 24 to 48 hrs by live/dead staining-based flow cytometry; format: cell-based; conditions: gm16216, 2.5 µM
structure (smiles),measurement,setting,value
CN(C)c1ccc2nc3ccc(=[N+](C)C)cc-3sc2c1,Activity,[1],Active
same,Activity,[2],Active
same,inhibition,[3],Dose-dependent effect
same,inhibition,[4],Dose-dependent effect
same,Activity,[5],inactive
same,Activity,[6],inactive
same,Activity,[7],Active
same,Activity,[8],Active
same,Activity,[9],Active
same,Activity,[10],Active
CCCCCCCCCCCCCCCN(C)c1ccc2nc3ccc(=O)cc-3sc2c1,Activity,[11],114%
same,Activity,[12],114%
same,Activity,[13],118%
same,Activity,[14],118%
same,Activity,[15],120%
same,Activity,[16],120%
same,Activity,[17],127%
same,Activity,[18],127%
same,Activity,[19],120%
same,Activity,[20],120%
same,Activity,[21],127%
same,Activity,[22],127%
same,Activity,[23],128%
same,Activity,[24],128%
same,Activity,[25],137%
same,Activity,[26],137%
same,Activity,[27],116%
same,Activity,[28],116%
same,Activity,[29],123%
same,Activity,[30],123%
CCCCCCCCCCCCCCCCc1cc2nc3ccc(N(C)C)cc3sc-2cc1=[N+](C)C.[I-],Activity,[1],Active
same,Activity,[2],Active
same,Activity,[31],14%
same,Activity,[32],86%
same,Activity,[33],14%
same,Activity,[34],86%
same,Activity,[35],Non-Toxic
same,Activity,[36],Non-Toxic
same,Activity,[37],Active
same,Activity,[38],Active
same,inhibition,[39],Active
same,inhibition,[40],Active
same,Activity,[41],Active
same,Activity,[42],Active
same,Activity,[43],inactive
same,Activity,[44],inactive
CN(C)c1ccc2nc3ccc(N(C)C)cc3[s+]c2c1.[Cl-] [METHYLENE BLUE ANHYDROUS],Activity,[31],17%
same,Activity,[32],83%
same,Activity,[33],17%
same,Activity,[34],83%
CCCCCCCCCCCc1cc2nc3ccc(N(C)C)cc3sc-2cc1=[N+](C)C.[I-],Activity,[31],18%
same,Activity,[32],82%
same,Activity,[33],18%
same,Activity,[34],82%
same,Activity,[45],Toxic
same,Activity,[46],Toxic
same,inhibition,[3],Dose-dependent effect
same,inhibition,[4],Dose-dependent effect
same,Activity,[5],inactive
same,Activity,[6],inactive
same,Activity,[41],Active
same,Activity,[42],Active
same,Activity,[43],inactive
same,Activity,[44],inactive
CCCCCCCCCCCCCCCN(CCCC)c1ccc2nc3ccc(=O)cc-3sc2c1,Activity,[11],116%
same,Activity,[12],116%
same,Activity,[13],123%
same,Activity,[14],123%
same,Activity,[15],121%
same,Activity,[16],121%
same,Activity,[17],127%
same,Activity,[18],127%
same,Activity,[19],117%
same,Activity,[20],117%
same,Activity,[21],127%
same,Activity,[22],127%
same,Activity,[23],123%
same,Activity,[24],123%
same,Activity,[25],137%
same,Activity,[26],137%
same,Activity,[27],115%
same,Activity,[28],115%
same,Activity,[29],116%
same,Activity,[30],116%
CCCCCCCCCCCCCc1cc2nc3ccc(N(C)C)cc3sc-2cc1=[N+](C)C.[I-],Activity,[1],Active
same,Activity,[2],Active
same,Activity,[31],18%
same,Activity,[32],82%
same,Activity,[33],18%
same,Activity,[34],82%
same,Activity,[45],Toxic
same,Activity,[46],Toxic
same,inhibition,[3],Dose-dependent effect
same,inhibition,[4],Dose-dependent effect
same,Activity,[5],inactive
same,Activity,[6],inactive
CCCCCc1cc2nc3ccc(N(C)C)cc3sc-2cc1=[N+](C)C.[I-],Activity,[1],Active
same,Activity,[2],Active
same,Activity,[31],19%
same,Activity,[32],81%
same,Activity,[33],19%
same,Activity,[34],81%
same,Activity,[45],Toxic
same,Activity,[46],Toxic
same,inhibition,[3],Dose-dependent effect
same,inhibition,[4],Dose-dependent effect
same,Activity,[5],inactive
same,Activity,[6],inactive

# — ChEMBL document CHEMBL4257548, “Phenothiazine antioxidants increase mitochondrial biogenesis and frataxin levels in Friedreich's ataxia cells” (Medchemcomm, 2018)
